From patent publication US5789432A, “Aromatase-inhibiting composition containing azole derivative” (Kureha Kagaku Kogyo Kabushiki Kaisha, priority 1993, dated 1998)

molecular target: T1, Aromatase (Homo sapiens, UniProt P11511); experiment: Aromatase-inhibiting activity (radiometric, H^14COOH release; method of Covey et al.); type: biochemical; conditions: not given
T1 construct: Microsomes of human placenta; from tissue; host or cells: human placenta, microsomes
T1 sequence (P11511 1-503): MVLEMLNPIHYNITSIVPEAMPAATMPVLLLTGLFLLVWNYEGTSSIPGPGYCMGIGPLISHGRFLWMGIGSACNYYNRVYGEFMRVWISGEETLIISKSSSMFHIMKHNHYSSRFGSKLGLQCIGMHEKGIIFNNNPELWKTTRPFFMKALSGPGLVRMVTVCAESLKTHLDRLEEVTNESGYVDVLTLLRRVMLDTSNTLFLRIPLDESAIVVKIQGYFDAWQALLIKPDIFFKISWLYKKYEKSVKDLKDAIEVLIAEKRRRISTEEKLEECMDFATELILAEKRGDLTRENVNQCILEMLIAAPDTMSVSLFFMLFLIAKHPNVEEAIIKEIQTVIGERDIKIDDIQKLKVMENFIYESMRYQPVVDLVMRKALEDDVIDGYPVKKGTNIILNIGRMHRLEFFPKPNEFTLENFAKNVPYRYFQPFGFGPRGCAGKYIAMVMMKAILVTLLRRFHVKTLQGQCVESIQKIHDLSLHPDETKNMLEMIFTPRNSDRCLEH
Experimental: The aromatase-inhibiting activity was measured basically according to the method described in D. F. Covey et al: BBRC […], 81-86, 1988. The aromatase-inhibiting activity of the azole derivatives used in the present invention was evaluated in terms of 50% aromatase activity-inhibiting concentration (IC50) of the derivatives.
The aromatase-inhibiting activity of each compound was measured according to the method of Covey et al: BBRC, 157 (1), 81-86, 1988. Radioactivity of a by-product H^14 COOH released from a ^14 C-labeled substrate by the action of aromatase was measured to radiometrically determine aromatase-inhibiting activity of the compounds. The aromatase-inhibiting activity of the test compound is shown by 50% aromatase activity-inhibiting concentration (IC50) of the compound.
An aromatase reaction system of the composition shown below in 67 mM phosphate buffer solution (0.5 ml) was incubated at 37° C. for 30 minutes with shaking. Chloroform (5 ml) was added to the reaction solution to stop the reaction. The reaction solution was vigorously stirred and then centrifuged to recover the by-product (H^14 COOH) of the aromatase reaction in the aqueous layer. The aqueous layer (0.1 ml) was collected and mixed with a liquid scintillation cocktail (4 ml) to measure its radioactivity.
(1) Aromatase: Microsomes of human placenta (0.1 mg/ml, protein concentration).
(2) Substrate: [19-^14 C] 4-Androstene-3,17-dione (1×10^-6 M; 2 kBq/ml).
(3) Coenzymes: Nicotinamide adenine dinucleotide phosphate, reduced form (2×10^-3 M), glucose-6-phosphate (4×10^-3 M) and glucose-6-phosphate dehydrogenase (4 U/ml).
Radioactivity of the reaction system exclusive of (1) was supposed to be background radioactivity as 100% control of aromatase inhibition. Radioactivity of the reaction system exclusive of (4) was supposed to be that of negative control as 0% of aromatase inhibition. […] 4-Hyroxyandrostenedione was used as a reference compound.
The aromatase inhibiting activities (IC50) of the optical isomers (I-3 (-) and I-3 (+)) were determined in the same way as in Example 6.

SMILES | IC50
O[C@@]1(Cc2ccc(-c3ccccc3)cc2)CCC[C@H]1Cn1cncn1 (relative stereo) [Compound I-9, 1-(p-Biphenylmethyl)-c-2-(1H-1,2,4-triazol-1-ylmethyl)cyclopentan-r-1-ol] | 13 nM
CC1(C)C[C@@H](Cc2ccc(Cl)cc2)[C@](O)(Cn2cncn2)C1 (relative stereo) [Compound I-20, c-2-(4-Chlorobenzyl)-4,4-dimethyl-1-(1H-1,2,4-triazol-1-ylmethyl)cyclopentan-r-1-ol] | 40 nM
O[C@@]1(Cc2ccc(Cl)cc2)CCC[C@@H]1Cn1ccnc1 (relative stereo) [Compound I-4, 1-(4-chlorobenzyl)-t-2-(1H-imidazol-1-ylmethyl)cyclopentan-r-1-ol] | 20 nM
O[C@@]1(Cc2ccc(Cl)cc2)CCC[C@H]1Cn1cncn1 (relative stereo) [Compound I-6, 1-(4-Chlorobenzyl)-c-2-(1H-1,2,4-triazol-1-ylmethyl)cyclopentan-r-1-ol] | 40 nM
O[C@@]1(Cc2ccc(Cl)cc2)CCC[C@H]1Cn1ccnc1 (stereo in doubt) [Compound I-3, 1-(4-chlorobenzyl)-c-2-(1H-imidazol-1-ylmethyl)cyclopentan-r-1-ol] | 40 nM
Clc1ccc2c(c1)O[C@]1(Cn3cncn3)CCC[C@@H]1C2 [Compound I-17, (3aR,9aR)-6-Chloro-2,3,9,9a-tetrahydro-3a(1H)-(1H-1,2,4-triazol-1-ylmethyl)cyclopenta[b][1]benzopyran] | 30 nM
O[C@@]1(Cc2ccc(Cl)cc2Cl)CCC[C@H]1Cn1cncn1 (relative stereo) [Compound I-7, 1-(2,4-Dichlorobenzyl)-c-2-(1H-1,2,4-triazol-1-ylmethyl)cyclopentan-r-1-ol] | 10 nM
CC1(C)CC[C@@H]2Cc3ccc(Cl)cc3O[C@]21Cn1cncn1 [Compound I-14, (3aR,9aR)-6-chloro-2,3,9,9a-tetrahydro-3,3-dimethyl-3a(1H)-(1H-1,2,4-triazol-1-ylmethyl)cyclopenta[b][1]benzopyran] | 12 nM
CC(C)[C@@](O)(CCn1ccnc1)Cc1ccc(Cl)cc1 [Compound I-2, (3S)-3-(4-chlorobenzyl)-1-(1H-imidazol-1-yl)-4-methylpentan-3-ol] | 10 nM
CC1(C)C[C@@H](Cc2ccc(Cl)cc2)[C@](O)(Cn2ccnc2)C1 (relative stereo) [Compound I-19, c-2-(4-Chlorobenzyl)-1-(1H-imidazol-1-ylmethyl)-4,4-dimethylcyclopentan-r-1-ol] | 65 nM
Fc1cccc2c1C[C@H]1CCC[C@@]1(Cn1cncn1)O2 [Compound I-18, (3aR,9aR)-8-Fluoro-2,3,9,9a-tetrahydro-3a(1H)-(1H-1,2,4-triazol-1-ylmethyl)cyclopenta[b][1]benzopyran] | 13 nM
O[C@@]1(c2ccc(Cl)cc2)CCC[C@H]1Cn1cncn1 (relative stereo) [Compound I-12, 1-(4-Chlorophenyl)-c-2-(1H-1,2,4-triazol-1-ylmethyl)cyclopentan-r-1-ol] | 10 nM
C[C@]12CCC(=O)C(O)=C1CC[C@@H]1[C@@H]2CC[C@]2(C)C(=O)CC[C@@H]12 [Reference, 4-Hyroxyandrostenedione, reference compound] | 20 nM
O[C@@]1(Cc2ccc(F)cc2F)CCC[C@H]1Cn1cncn1 (relative stereo) [Compound I-8, 1-(2,4-Difluorobenzyl)-c-2-(1H-1,2,4-triazol-1-ylmethyl)cyclopentan-r-1-ol] | 12 nM

same assay, conditions: Table 1; microsomes of human placenta, [19-14C] 4-androstene-3,17-dione 1×10^-6 M, 37° C., 30 minutes; read-out: IC50 (50% aromatase activity-inhibiting concentration)

SMILES | IC50
O[C@@]1(c2ccc(Cl)cc2)CCC[C@H]1Cn1ccnc1 (relative stereo) [Compound I-10, 1--(4-Chlorophenyl)-c-2-(1H-imidazol-1-ylmethyl)cyclopentan-r-1-ol] | 30 nM
CC1(C)CC[C@@H]2Cc3ccc(Cl)cc3O[C@]21Cn1ccnc1 [Compound I-15, (3aR,9aR)-6-Chloro-2,3,9,9a-tetrahydro-3a(1H)-(1H-imidazol-1-ylmethyl)-3,3-dimethylcyclopenta[b][1]benzopyran] | 45 nM
O[C@@]1(c2ccccc2)CCC[C@H]1Cn1ccnc1 (relative stereo) [Compound I-11, 1-(Phenyl)-c-2-(1H-imidazol-1-ylmethyl)cyclopentan-r-1-ol] | 35 nM
CC(C)[C@](O)(CCn1ccnc1)c1ccc(Cl)cc1 [Compound I-1, (3R)-3-(4-chlorophenyl)-1-(1H-imidazol-1-yl)-4-methylpentan-3-ol] | 10 nM
O[C@@]1(Cc2ccccc2)CCC[C@@H]1Cn1ccnc1 (relative stereo) [Compound I-5, 1-(Benzyl)-t-2-(1H-imidazol-1-ylmethyl)cyclopentan-r-1-ol] | 50 nM
Clc1ccc2c(c1)O[C@]1(Cn3ccnc3)CCC[C@@H]1C2 [Compound I-16, (3aR,9aR)-6-Chloro-2,3,9,9a-tetrahydro-3a(1H)-(1H-imidazol-1-ylmethyl)cyclopenta[b][1]benzopyran] | 30 nM

same assay, conditions: read-out: IC50 (50% aromatase activity-inhibiting concentration); Table 1; microsomes of human placenta, [19-14C] 4-androstene-3,17-dione 1×10^-6 M, 37° C., 30 minutes

SMILES | IC50
O[C@@]1(Cc2ccc(Cl)cc2)CCC[C@H]1Cn1ccnc1 (stereo in doubt) [Compound I-13, nitrate of 1-(4-chlorobenzyl)-c-2-(1H-imidazol-1-ylmethyl)-cyclopentan-r-1-ol] | 55 nM

same assay, conditions: read-out: IC50 of optical isomers; Example 7; same way as in Example 6

SMILES | IC50
O[C@]1(Cc2ccc(Cl)cc2)CCC[C@@H]1Cn1ccnc1 (stereo in doubt) [I-3 (+), 1-(4-chlorobenzyl)-c-2-(1H-imidazol-1-ylmethyl)cyclopentan-r-1-ol] | 80 nM
O[C@]1(Cc2ccc(Cl)cc2)CCC[C@@H]1Cn1ccnc1 (stereo in doubt) [I-3 (-), 1-(4-chlorobenzyl)-c-2-(1H-imidazol-1-ylmethyl)cyclopentan-r-1-ol] | 4 nM
